Laboratory results: publication PMC10507085, “Pharmacological inhibition of TBK1/IKKε blunts immunopathology in a murine model of SARS-CoV-2 infection” (Nature Communications, 2023)

Legend:
Assay in all cases: biochemical
Parameters in all cases: KINOMEscan competition binding, DNA-tagged kinase against immobilised ligand, qPCR read-out
Details in all cases: read-out: Percent Control
[1] = target: T1, TYK2(JH1domain-catalytic) (Homo sapiens, UniProt P29597)
T1 construct: JH1 domain catalytic

CAMKK1 = CAMKK1 (Homo sapiens, UniProt Q8N5S9)
SRPK1 = SRPK1 (Homo sapiens, UniProt Q96SB4)
Sequence of SRPK1 (Q96SB4 whole entry): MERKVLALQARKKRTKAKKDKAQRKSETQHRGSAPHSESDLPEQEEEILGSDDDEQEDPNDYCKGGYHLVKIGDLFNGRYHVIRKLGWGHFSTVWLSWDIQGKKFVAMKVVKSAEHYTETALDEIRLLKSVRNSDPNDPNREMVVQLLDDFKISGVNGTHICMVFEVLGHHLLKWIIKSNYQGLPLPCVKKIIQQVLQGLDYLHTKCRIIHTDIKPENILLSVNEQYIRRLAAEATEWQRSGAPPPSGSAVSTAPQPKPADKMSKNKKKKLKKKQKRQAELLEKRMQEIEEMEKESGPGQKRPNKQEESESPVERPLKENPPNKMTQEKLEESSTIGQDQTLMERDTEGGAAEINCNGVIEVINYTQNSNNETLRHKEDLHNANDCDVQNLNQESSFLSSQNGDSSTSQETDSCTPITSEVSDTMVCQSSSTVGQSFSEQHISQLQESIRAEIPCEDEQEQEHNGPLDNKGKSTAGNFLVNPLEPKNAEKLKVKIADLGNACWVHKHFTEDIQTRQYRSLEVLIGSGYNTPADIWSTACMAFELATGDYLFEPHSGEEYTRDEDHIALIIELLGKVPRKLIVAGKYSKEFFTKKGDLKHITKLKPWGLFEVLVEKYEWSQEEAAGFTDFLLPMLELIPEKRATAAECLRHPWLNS

WEE2 = WEE2 (Homo sapiens, UniProt P0C1S8)
Sequence of WEE2 (P0C1S8 whole entry): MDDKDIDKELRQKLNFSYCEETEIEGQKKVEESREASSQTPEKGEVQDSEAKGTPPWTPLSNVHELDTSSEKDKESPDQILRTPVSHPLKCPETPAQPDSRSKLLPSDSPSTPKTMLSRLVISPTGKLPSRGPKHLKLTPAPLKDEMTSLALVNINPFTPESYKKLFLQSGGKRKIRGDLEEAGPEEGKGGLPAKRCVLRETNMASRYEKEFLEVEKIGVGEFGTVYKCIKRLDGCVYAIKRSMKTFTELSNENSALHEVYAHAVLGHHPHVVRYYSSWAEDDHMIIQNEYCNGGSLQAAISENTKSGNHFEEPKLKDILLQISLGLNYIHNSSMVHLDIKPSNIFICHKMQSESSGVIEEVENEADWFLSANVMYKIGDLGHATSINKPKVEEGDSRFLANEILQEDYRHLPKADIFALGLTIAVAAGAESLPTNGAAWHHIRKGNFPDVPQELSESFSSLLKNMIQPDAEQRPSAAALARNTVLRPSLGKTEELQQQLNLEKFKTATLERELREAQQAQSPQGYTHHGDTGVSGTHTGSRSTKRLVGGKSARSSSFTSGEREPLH

MAP4K1 = MAP4K1 (Homo sapiens, UniProt Q92918)
CDK4 = CDK4 (Homo sapiens, UniProt P11802)
IRAK3 = IRAK3 (Homo sapiens, UniProt Q9Y616)
EPHA2 = EPHA2 (Homo sapiens, UniProt P29317)
[2] = target: T2, RSK4(Kin.Dom.1-N-terminal) (Homo sapiens, UniProt Q9UK32)
T2 construct: gene RPS6KA6; Kin.Dom.1 N-terminal
T2 sequence (Q9UK32 whole entry): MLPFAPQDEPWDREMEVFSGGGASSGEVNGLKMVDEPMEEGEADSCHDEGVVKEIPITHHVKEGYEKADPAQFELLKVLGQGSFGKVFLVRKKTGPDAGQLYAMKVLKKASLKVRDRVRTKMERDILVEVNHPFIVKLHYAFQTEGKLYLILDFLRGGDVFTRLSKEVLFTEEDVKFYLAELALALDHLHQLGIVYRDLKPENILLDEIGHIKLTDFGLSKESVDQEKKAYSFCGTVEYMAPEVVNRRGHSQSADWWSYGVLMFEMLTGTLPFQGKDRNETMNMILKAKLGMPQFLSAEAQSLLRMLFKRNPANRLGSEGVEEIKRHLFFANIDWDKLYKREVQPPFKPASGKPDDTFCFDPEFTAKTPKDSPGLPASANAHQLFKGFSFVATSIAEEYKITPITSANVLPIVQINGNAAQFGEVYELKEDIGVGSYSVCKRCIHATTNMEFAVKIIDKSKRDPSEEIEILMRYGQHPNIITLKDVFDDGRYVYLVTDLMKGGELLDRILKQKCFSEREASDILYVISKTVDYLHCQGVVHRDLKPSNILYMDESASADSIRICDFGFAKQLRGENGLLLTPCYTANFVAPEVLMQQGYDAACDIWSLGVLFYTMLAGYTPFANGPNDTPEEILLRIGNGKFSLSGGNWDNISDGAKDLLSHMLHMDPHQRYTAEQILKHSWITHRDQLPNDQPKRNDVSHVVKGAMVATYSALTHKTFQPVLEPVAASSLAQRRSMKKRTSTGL

PAK3 = PAK3 (Homo sapiens, UniProt O75914)
MELK = MELK (Homo sapiens, UniProt Q14680)
Sequence of MELK (Q14680 whole entry): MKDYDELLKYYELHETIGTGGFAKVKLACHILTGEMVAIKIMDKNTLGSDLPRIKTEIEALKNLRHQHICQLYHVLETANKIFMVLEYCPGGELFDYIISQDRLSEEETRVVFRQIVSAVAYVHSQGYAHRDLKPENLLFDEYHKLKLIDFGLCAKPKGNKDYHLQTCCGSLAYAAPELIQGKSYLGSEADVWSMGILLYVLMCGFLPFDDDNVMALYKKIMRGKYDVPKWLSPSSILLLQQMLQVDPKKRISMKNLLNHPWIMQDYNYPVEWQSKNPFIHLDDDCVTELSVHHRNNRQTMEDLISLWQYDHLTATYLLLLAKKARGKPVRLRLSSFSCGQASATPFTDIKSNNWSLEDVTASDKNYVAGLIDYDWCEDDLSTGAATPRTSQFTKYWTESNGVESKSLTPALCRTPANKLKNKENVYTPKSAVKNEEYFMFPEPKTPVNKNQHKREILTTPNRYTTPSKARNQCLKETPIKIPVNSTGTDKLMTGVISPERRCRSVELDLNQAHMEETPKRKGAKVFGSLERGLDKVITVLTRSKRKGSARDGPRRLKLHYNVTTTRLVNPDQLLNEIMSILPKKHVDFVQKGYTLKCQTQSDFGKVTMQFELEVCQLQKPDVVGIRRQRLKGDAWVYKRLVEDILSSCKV

MAP4K5 = MAP4K5 (Homo sapiens, UniProt Q9Y4K4)
Sequence of MAP4K5 (Q9Y4K4 whole entry): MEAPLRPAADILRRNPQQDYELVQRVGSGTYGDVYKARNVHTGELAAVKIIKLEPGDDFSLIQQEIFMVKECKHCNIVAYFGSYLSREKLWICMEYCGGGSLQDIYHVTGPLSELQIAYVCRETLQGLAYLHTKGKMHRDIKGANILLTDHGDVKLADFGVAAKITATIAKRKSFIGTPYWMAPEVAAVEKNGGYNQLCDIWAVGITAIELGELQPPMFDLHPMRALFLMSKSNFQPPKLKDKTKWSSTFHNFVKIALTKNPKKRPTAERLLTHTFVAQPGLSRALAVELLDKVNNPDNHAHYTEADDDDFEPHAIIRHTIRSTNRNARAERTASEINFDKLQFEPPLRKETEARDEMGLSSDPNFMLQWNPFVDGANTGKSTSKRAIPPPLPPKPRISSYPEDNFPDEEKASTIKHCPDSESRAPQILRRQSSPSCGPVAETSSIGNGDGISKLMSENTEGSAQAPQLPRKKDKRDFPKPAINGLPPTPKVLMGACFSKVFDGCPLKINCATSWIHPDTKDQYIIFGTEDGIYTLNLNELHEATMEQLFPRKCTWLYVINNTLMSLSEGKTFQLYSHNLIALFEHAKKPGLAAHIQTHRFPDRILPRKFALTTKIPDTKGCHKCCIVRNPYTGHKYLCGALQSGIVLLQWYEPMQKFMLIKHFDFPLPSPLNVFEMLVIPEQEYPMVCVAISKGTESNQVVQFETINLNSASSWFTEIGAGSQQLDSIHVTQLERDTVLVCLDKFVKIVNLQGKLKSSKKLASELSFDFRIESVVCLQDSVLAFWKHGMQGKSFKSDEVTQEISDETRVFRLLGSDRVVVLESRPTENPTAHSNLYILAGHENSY

EPHB6 = EPHB6 (Homo sapiens, UniProt O15197)
Sequence of EPHB6 (O15197 whole entry): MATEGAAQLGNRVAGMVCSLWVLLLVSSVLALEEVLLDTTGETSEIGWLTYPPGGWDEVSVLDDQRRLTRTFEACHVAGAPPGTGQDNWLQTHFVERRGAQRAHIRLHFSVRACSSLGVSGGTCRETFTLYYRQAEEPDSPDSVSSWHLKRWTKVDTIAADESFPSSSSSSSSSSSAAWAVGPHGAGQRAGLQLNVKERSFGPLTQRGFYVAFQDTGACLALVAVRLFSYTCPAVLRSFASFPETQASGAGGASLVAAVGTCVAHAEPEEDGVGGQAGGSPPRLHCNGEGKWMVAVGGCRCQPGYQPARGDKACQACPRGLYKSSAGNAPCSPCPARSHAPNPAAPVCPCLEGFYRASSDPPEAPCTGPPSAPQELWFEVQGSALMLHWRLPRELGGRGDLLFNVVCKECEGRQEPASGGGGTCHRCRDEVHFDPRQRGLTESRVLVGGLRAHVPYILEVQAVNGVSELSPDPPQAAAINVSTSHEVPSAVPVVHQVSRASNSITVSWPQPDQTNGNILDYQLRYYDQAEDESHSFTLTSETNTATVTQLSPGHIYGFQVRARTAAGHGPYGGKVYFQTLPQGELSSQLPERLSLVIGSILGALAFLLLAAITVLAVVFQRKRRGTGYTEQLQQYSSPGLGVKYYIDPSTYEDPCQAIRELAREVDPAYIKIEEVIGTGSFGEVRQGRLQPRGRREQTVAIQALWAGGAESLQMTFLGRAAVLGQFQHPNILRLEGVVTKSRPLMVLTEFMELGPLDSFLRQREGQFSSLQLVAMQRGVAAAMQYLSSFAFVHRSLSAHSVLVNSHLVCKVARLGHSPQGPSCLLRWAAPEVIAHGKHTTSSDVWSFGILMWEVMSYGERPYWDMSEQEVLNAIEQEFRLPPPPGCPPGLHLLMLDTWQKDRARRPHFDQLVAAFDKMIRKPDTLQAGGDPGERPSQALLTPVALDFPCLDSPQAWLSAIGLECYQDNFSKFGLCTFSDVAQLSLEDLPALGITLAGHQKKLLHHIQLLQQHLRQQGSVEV

LCK = LCK (Homo sapiens, UniProt P06239)
Sequence of LCK (P06239 whole entry): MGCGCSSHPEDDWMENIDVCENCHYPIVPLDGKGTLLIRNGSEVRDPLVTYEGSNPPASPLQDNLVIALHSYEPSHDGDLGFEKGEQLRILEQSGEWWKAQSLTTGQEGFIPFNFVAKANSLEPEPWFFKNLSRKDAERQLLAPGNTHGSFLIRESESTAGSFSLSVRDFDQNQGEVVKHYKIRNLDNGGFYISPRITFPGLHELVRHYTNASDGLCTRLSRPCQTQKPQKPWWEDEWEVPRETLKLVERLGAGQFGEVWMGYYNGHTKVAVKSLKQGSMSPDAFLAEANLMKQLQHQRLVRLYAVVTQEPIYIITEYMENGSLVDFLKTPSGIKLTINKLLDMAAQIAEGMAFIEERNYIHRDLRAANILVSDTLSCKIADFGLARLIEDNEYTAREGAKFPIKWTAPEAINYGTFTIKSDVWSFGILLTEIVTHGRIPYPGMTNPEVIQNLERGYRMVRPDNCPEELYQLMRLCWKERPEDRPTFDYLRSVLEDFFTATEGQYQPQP

CDK13 = CDK13 (Homo sapiens, UniProt Q14004)
BUB1 = BUB1 (Homo sapiens, UniProt O43683)
MAST1 = MAST1 (Homo sapiens, UniProt Q9Y2H9)
CAMK4 = CAMK4 (Homo sapiens, UniProt Q16566)
GSK3A = GSK3A (Homo sapiens, UniProt P49840)
FGR = FGR (Homo sapiens, UniProt P09769)

Oc1ccc(C2=Cc3ccc(O)cc3OC2)cc1 [compound 1, idronoxil]
remaining binding at 10 µM [1]: 74%
remaining binding at 10 µM (CAMKK1): 78%
remaining binding at 10 µM (SRPK1): 100%
remaining binding at 10 µM (WEE2): 95%
remaining binding at 10 µM (MAP4K1): 78%
remaining binding at 10 µM (CDK4): 100%
remaining binding at 10 µM (IRAK3): 77%
remaining binding at 10 µM (EPHA2): 78%
remaining binding at 10 µM [2]: 94%
remaining binding at 10 µM (PAK3): 100%
remaining binding at 10 µM (MELK): 64%
remaining binding at 10 µM (MAP4K5): 70%
remaining binding at 10 µM (EPHB6): 53%
remaining binding at 10 µM (LCK): 60%
remaining binding at 10 µM (CDK13): 100%
remaining binding at 10 µM (BUB1): 91%
remaining binding at 10 µM (MAST1): 93%
remaining binding at 10 µM (CAMK4): 100%
remaining binding at 10 µM (GSK3A): 74%
remaining binding at 10 µM (FGR): 74%
